# Assay results from US20030153081A1, “Viral core protein-cationic lipid-nucleic acid-delivery complexes” (priority 1999, published 2003).
# What was measured:
# ND7 cells [1] = assay: X-gal staining, cationic lipid variations in ND7 cells; assay type: cell-based, rat/mouse; conditions: ND7, Liposome:DNA 3:1 w/w
# Experimental: We determined whether LMD complexes could be bettered by incorporating poly cationic cholesterol lipids (WO 97/45442). CDAN (B198), ACHx (CJE52) and CTAP (B232) (FIG. 9) were used to make cationic liposomes in place of DC-Chol. Each cationic liposome system used was composed of 60 mol % of cationic lipid and 40 mol % of DOPE and prepared as described in Example 4. The following different LMD complex systems were prepared and compared: LMD(DC-Chol), LMD(B198), LMD(CJE52), and LMD(B232). All LMD systems were prepared with cationic liposomes (total lipid 20 μmol) and 0.6 mg of Mu1 peptide per 1.0 mg of DNA (pCMVβ), as described above.
# Liposome:DNA (LD) complex mixtures (lipoplexes) were prepared for control experiments with a Liposome:DNA ratio of 3:1 (w/w), the optimal composition for transfection of ND7 cells.
# Transfection in ND7 cells; ND7 cells were seeded in NGM (with 10% serum) at a density of approximately 4×10^4 cells per well, in a 24-well culture plate. After 24 h, cells were washed by brief exposure to NGM (serum free) and then treated with solutions containing LMD or LD complexes, prediluted with NGM (serum free) (final DNA concentration 2.5 μg/ml in all cases), for 1 h. Cells were then washed again and incubated for a further 48 h prior to processing for histochemical staining with X-gal. The number of cells stained blue were counted under an inverted microscope.
# HeLa cells = assay: β-galactosidase assay, alternative cationic peptides in HeLa cells; assay type: cell-based, human; conditions: DC-Chol:DOPE liposome:peptide:DNA 12:0.6:1, 30 min, DNA 1.0 μg/ml
# Experimental: In order to examine the effects of various alternative cationic peptides on transfection activities, a series of liposome:cationic peptide:DNA complexes were prepared and their relative transfection abilities analysed in vitro. The peptides used were poly-lysine hydrochloride (average molecular weight 3970, Sigma), poly arginine hydrochloride (average molecular weight 11800, Sigma) a peptide derived from protein V, pV (p5, sequence shown below), a peptide analogue of Mu1 (V, sequence shown below) and Mu1 peptide itself. The p5 peptide and V peptide were synthesized using the same solid-phase peptide synthesis methodology as was used to prepare Mu1 peptide.
# Each peptide was combined with cationic liposome (DC-Chol:DOPE 3:2 m/m) and DNA (pCMVβ) in the liposome:peptide:DNA ratio of 12:0.6:1 (w/w/w) as described in Example 4. The transfection activities were examined using HeLa cells (human epithelial cells). The cells were seeded at an approximate density of 5×10^4 per well in a 24-well culture plate in DMEM supplemented with 10% FCS and grown for 24 h in the presence of 5% CO2 at 37° C. Cells were washed by brief exposure to DMEM and then treated with solutions containing LMD or LD complexes, prediluted with OPTIMEM (Gibco) (final DNA concentration 1.0 μg/ml in all cases), for 30 min. Cells were then washed again and incubated for a further 48 h in DMEM supplemented with 10% FCS prior to harvesting. The level of β-galactosidase enzyme activity was determined with a standard assay kit (chemiluminescent, Roche).
# plasmid DNA (pCMVβ) = assay: gel retardation assay (DNA binding analysis)
# Experimental: One microgram of pCMVβ was incubated with 0 μg (lane 2), 5 μg (lane 3), 10 μg (lane 4), 15 μg (lane 5), 20 μg (lane 6), 25 μg (lane 7) and 30 μg (lane 8) of BSA for 10 minutes at room temperature in 1× HBS. Samples were then analyzed on a 1% agarose gel for altered mobility.
# When ratios of 0.5 (w/w) or greater were used, however, migration of both forms of pDNA was severely retarded.
# C). The Polyomavirus protein Vp1 was much less efficient at preventing pDNA migration. pCMVβ (1 μg) was incubated with 2 μg (lane 2), 4 μg (lane 3), 6 μg (lane 4), 8 μg (lane 5), 16 μg (lane 6), 32 μg (lane 7) and 0 μg (lane 8) Vp1. Only ratios of 6 or higher (protein: pDNA, w/w) caused significant retardation of supercoiled pDNA (lane 6, lower band). Also, not until a ratio of 32 (w/w) was used was there any effect on relaxed pDNA (lane 7, upper band). In all gels lane 1 corresponds to 1 Kb DNA marker (BRL).
# The purified peptides were reconstituted in sterile distilled H2O at 3 mg/mL. Peptide and pDNA were complexed in 20 μL HEPES buffered saline (137 mM NaCl, 5 mM KCl, 0.75 mM Na2HPO4, 19 mM HEPES, pH 7.4) for 20 minutes at room temperature. Peptide: pDNA complexes were subsequently analyzed by agarose gel electrophoresis (1%). Control incubations for general macromolecular pDNA interactions were performed with varying amounts of molecular biology grade purified bovine serum albumin (Sigma).
# Varying amounts of purified peptide were incubated at room temperature in HBS for approximately 10 minutes and then analyzed by agarose gel electrophoresis. Without the addition of peptide, supercoiled and relaxed circular plasmid DNA (pDNA) migrated in the expected manner (FIG. 1, lane 8).
# ND7 cells [2] = assay: β-galactosidase reporter gene assay, transfection of undifferentiated ND7 cells; assay type: cell-based, rat/mouse; conditions: peptide with cationic liposome, pCMVβ:liposome 1:3 w/w
# Experimental: ND7 cells were seeded at a density of 5 ×10^4 cells/well in 24 well culture dishes 24 hrs prior to transfection. Immediately prior to transfection, cells were washed in serum-free media. Complexes were formed by incubating pCMVβ with Mu1 prior to the addition of the cationic liposome DC-Chol/DOPE. In each case 1 μg pCMVβ was complexed with 0.6, 6, 12, and 21 μg Mu1 peptide. Each of these combinations was then complexed with 3, 4 and 6 μg DC-Chol/DOPE. ND7 cells were exposed to transfection complexes for 2 hours then maintained at 37° C., 5% CO2 for another 24 hrs before being harvested and processed for β-galactosidase enzyme assay. Numbers represent means±SD, n=3.
# pCMVβ plasmid DNA was complexed to various amounts of polycationic peptide and then mixed with cationic liposome at a ratio of 1:3 (pCMVβ:liposome; w/w). After being washed briefly in serum free media, ND7 cells were exposed to the […] complexes for two hours and then returned to serum containing media Twenty-four hours later the cells were harvested and processed for β-galactosidase enzyme assay. Each condition was performed in triplicate and each experiment replicated three times. Numbers represent means±SD.
# ND7s are a well-characterized cell line derived from the fusion of a neuroblastoma N18Tg2) with neonatal rat sensory neurons ^28. The cell line was maintained in normal growth media (NGM) (Leibovitz's L-15 media (BRL) enriched with 10% Fetal bovine serum (BRL), 4 g/L glucose, 4 g/L sodium bicarbonate (BRL), 100 IU/mL penicillin/streptomycin (BRL)) at 37° C. and 5% CO2. The cells were plated onto 24 well plates (Costar) at a density that produced 70% confluence after 24 hours.
# Since initial experiments determined that the presence of fetal bovine serum inhibited transfection of ND7 cells serum-free differentiation media was used for all transfections. Various amounts of DNA and liposome were placed in the bottom of a 7 mL sterile Bijou container (Bibby Sterilin Ltd., Staffordshire, U.K.), but not in contact with each other.
# DNA and liposomes were combined by the addition of 400 μL serum-free differentiation media and gentle shaking. The DNA: liposome mixture was incubated at room temperature for 20 to 30 minutes before being applied to the cells. The DNA/liposome mixture was then applied to the cells and incubated at 37° C., 5% CO2 for 2 hours after which this media was replaced with complete media Twenty four to 48 hours later the cells were fixed and processed for X-gal histochemistry as described ^31 or harvested for β-galactosidase enzyme assays (Promega Corp.).
# Transfection complexes including the test peptides were generated in the following manner. Various amounts of peptide was placed in the bottom of sterile polystyrene containers alongside, but not in contact with 1 μg·pCMVβ and mixed by adding 400 μl serum free NGM media The complexes were incubated at room temperature for 10 minutes after which DC-Chol/DOPE was added. The pDNA/peptide/liposome complex was further incubated at room temperature for 20 minutes and then administered to cells as above.
# We examined the ability of Mu1 and Vp1 to enhance the transfection of a neuronal cell line by cationic liposomes using a β-Galactosidase reporter gene assay. ND7 cells were transfected with pCMVβ complexed to varying amounts of peptide and DC-Chol/DOPE. We have previously shown that the cationic liposome DC-Chol/DOPE is capable of efficiently transfecting the neuronally derived ND7 cell line ^31. […] Temporally, maximal levels of transgene expression are obtained between 48-60 hours post transfection. Therefore, in order to maximize the chance of detecting improvements in transfection we performed all our assays within 12-20 hours of transfection at a time when levels of reporter gene expression were lower. Previously we found a pDNA: liposome ratio of 1:3 (w/w) optimal for transfections in ND7 cells ^31. […]
# [3] = charge ratios worked out from the sequence; assay type: physicochemical
# Source text: Mu1 is a polycationic peptide comprised of 19 amino acids associated with the core complex of Adenovirus (Table 1) ^27, 32. We compared the DNA binding capacity of Mu1 with the mouse polyomavirus major capsid protein Vp1 by interaction with plasmid DNA in a gel retardation assay. Vp1 is a 19 amino acid peptide that contains a nuclear localization signal ^26 and contains fewer positively charged amino acids than Mu1. It was therefore predicted to have a lower DNA binding capacity.
# The success of non-viral gene delivery vehicles as viable alternatives to virus vector-based systems is dependent on the development of complexes with higher and longer lasting transfection efficiencies. Since the initial identification of cationic liposomes as vehicles for the transfer of genetic material into cells there has been a large push to develop better cationic liposome formulations ^5, 7. Most attempts at improving cationic liposomes have been based on structural modifications to the molecule itself ^30. Novel formulations have been developed which have improved transfection efficiencies ^30. However, particular cell types behave differently in regards to cationic liposomal transfection. For example, we found the polypeptide Mu1 better at enhancing cationic liposome mediated transfection than Vp1. This was probably due to Mu1's greater charge ratio. While both peptides are approximately the same molecular weight, the overall charge ratio of Mu1 was more than twice that of Vp1 (Table 1). […] While a small shift in pDNA mobility was detected when 0.25 μg Mu1 was complexed to 1 μg pCMVβ, almost all of the plasmid was retained near the loading well following addition of 0.5 μg Mu1 (FIG. 1). A 0.5/1.0 (w/w) ratio of Mu1 to pCMVβ corresponds to a 1000/1 molar ratio. Each molecule of Mu1 contains 12 residues that could potentially carry a positive charge. The theoretical charge ratio of Mu1 to pCMVβ would then be 1.6 (12000 Mu1 cations to 7500 pCMVβ anions).
molecule,measurement,setting,value
CC(C)CCCC(C)C1CCC2C3CC=C4CC(OC(=O)NCCNCCCNCCN)CCC4(C)C3CCC12C (stereo not drawn) [B198],"rank order in transfection efficiency, corresponding LD systems",ND7 cells [1],B198>DC-Chol>B232
"CC(C)CCC[C@@H](C)[C@H]1CC[C@H]2[C@@H]3CC=C4C[C@@H](OC(=O)NCCN(C)C)CC[C@]4(C)[C@H]3CC[C@]12C [DC-Chol, 3β[N-(N′,N′-dimethylaminoethane)carbamoyl] cholesterol, reference compound]","rank order in transfection efficiency, corresponding LD systems",ND7 cells [1],B198>DC-Chol>B232
"RPRRRATTRRRTTTGTRRRRRRR [p5, peptide derived from protein V, pV]",transfection activity compared to poly lysine and poly arginine complexes,HeLa cells,excellent transfection activity
"NH2—Met—Ala—Pro—Lys—Arg—Lys—Ser—Gly—Val—Ser—Lys—Cys—Glu—Thr—Lys—Cys—Thr—Pro—Pro—OH (H-MAPKRKSGVSKCETKCTPP-OH; cysteine pairing not given here) [Vp1, 19 amino acid peptide of mouse polyomavirus major capsid protein Vp1, contains a nuclear localization signal, reference compound]",ratio protein:pDNA at which there was first any effect on relaxed pDNA,"plasmid DNA (pCMVβ); 1 μg pCMVβ, 1% agarose gel",32 w/w
same,ratio protein:pDNA causing significant retardation of supercoiled pDNA,"plasmid DNA (pCMVβ); 1 μg pCMVβ, 1% agarose gel",≥ 6 w/w
same,effect on electrophoretic mobility of plasmid DNA,plasmid DNA (pCMVβ); pDNA:protein ratios up to 1:8 (w/w),no effect on the electrophoretic mobility
same,improvement on transfection efficiency,ND7 cells [2],no improvement on transfection efficiency
same,Charge/AA ratio,[3],0.26
VRRVHHRRRRVSHRRVRGG [peptide analogue of Mu1],transfection activity compared to poly lysine and poly arginine complexes,HeLa cells,excellent transfection activity
